Values quoted from earlier work, collected in patent US11575141B2 (Robert Bosch GmbH, priority 2020, dated 2023).
Like-named read-outs stand apart in the source and are kept apart here.

Structure (SMILES) | pKa values (pKa source in footnotes) (first pKa value listed) | pKa values (pKa source in footnotes) (fourth pKa value listed) | pKa values (pKa source in footnotes) (second pKa value listed) | pKa values (pKa source in footnotes) (third pKa value listed)
O=P(O)(O)OP(=O)(O)OP(=O)(O)O [Example 5, Triphosphoric acid] | 0.89 ^3 |  |  | 
O=P(O)(O)P(=O)(O)O [Example 2, Hypophosphoric acid] | 2.2 | 10.0 | 2.8 | 7.3
O=[PH](O)O [Example 14, Phosphonic acid] | 1.1-2.3 |  | 5.3-7.2 | 
NP(=O)(O)O [Example 10, Phosphoramidate] | ~3.4 |  | ~8.3 | 
